Assay [1] addresses T1, human recombinant beta-2 receptors (Homo sapiens, UniProt P07550).
T1 construct: expressed in transfected cells; host or cells: CHO-WT21 cells
Description: β2-receptor radioligand binding, [125I] iodocyanopindolol, CHO-WT21 cells. Here is the method: (§1) Non-selective β-adrenergic and β1-adrenergic radioligand binding assays were performed using rat cortical membranes; β2-adrenergic receptor assays were performed using membranes isolated from CHO cells expressing human, recombinant b2-adrenergic receptor; non-selective α1-adrenergic receptor assays were performed using rat forebrain membranes; and PDE3 binding assays were performed on human platelets. Values in percent illustrate percent inhibition at 1000 nM concentration.

Assay [2] relates to White New Zealand male rabbits. Description: In vivo β-adrenergic blockade, isoproterenol challenge (Protocol 1). Also noted: species or system rabbit. As to the method: (§2) Studies were performed on White New Zealand male rabbits (2-3 kg weight). Animals were initially anesthetized with ketamine (50 mg/kg; IM) and xylazine (6 mg/kg, IM). Subsequently, animals were intubated (via tracheotomy; 3 mm tube) and ventilated with 2% isoflurane (mixed in 95% O2+5% CO2). Each rabbit was instrumented for LV pressure (3F Millar catheter) through right carotid artery, arterial pressure (3F catheter, Cook Instruments) through left femoral artery, which was connected to a fluid-filled pressure transducer (BD Instruments), and ECG. Both pressure transducers were zeroed against atmospheric pressure, and calibrated before each study using an analog manometer. Upon completion of instrumentation, isoflurane was reduced to 1.25%, and the animal was covered for maintenance of body core temperature. Arterial and LV blood pressures (LVP) and the ECG signals were simultaneously digitally recorded on a PC. The recording system (Gould Instruments) and the corresponding software (Ponema, Gould Instruments) facilitated detailed calculation of various parameters directly from all signals and record on a separate file with a 1 sec resolution. Upon completion of the study protocol, rabbits were euthenized by isoflurane overdose (5% for at least 1 minute) and cardiac arrest through IV infusion of 5 ml 3 molar potassium chloride.
(§3) Once the physiological variables were stable, effects of each drug on hemodynamics and ECG were determined based on two different protocols: 1) infusion of a compound of the present invention to determine the effects of the compound itself mainly on contractility, and other hemodynamic indices; and 2) infusion of a compound of the present invention while the system was challenged with 0.5 ug/kg isoproterenol to determine the beta-adrenergic antagonism properties of each tested compound.
(§4) White New Zealand male rabbits (2-3 kg) were anesthetized and ventilated (95% O2+5% CO2) with 1.25% isoflurane. Each animal was instrumented for LV pressure (Millar, through left carotid artery), arterial pressure (left femoral artery), infusion (jugular vein), and electrocardiogram. The animals were administered intravenously based on one of these protocols:
Protocol 1: β-adrenergic blockade (isoproterenol challenge).

For assay [3], the system named is human fetal cardiac fibroblasts. The assay is described as follows: Cyclic-AMP production by fluorescence (intrinsic sympathomimetic activity). The class given is cell-based. To be noted: IBMX (750 μM) present; compared to isoproterenol or forskolin; any concentration tested. Here is the method: The effect of Compound 8c on cyclic-AMP production was determined in human fetal cardiac fibroblasts by fluorescence, presented in FIG. 18 as [F−Fo)/Fo], mean±SEM, N=4. IBMX (750 μM) was present in all assays.

In assay [4] the target is α1-adrenergic receptor. Description: Non-selective α1-adrenergic receptor assay using rat forebrain membranes. In kind it is binding. As to the method: as §1, with “The ability of Compounds 25 and 8c to inhibit PDE3 and β-adrenergic receptor activity was examined both in vitro and in vivo. […] Non-selective” for “Non-selective”
The target in assay [5] is T2, human recombinant beta-1 receptors (Homo sapiens, UniProt P08588).
T2 construct: expressed in transfected cells; host or cells: CHO-REX16 cells
T2 sequence (P08588 whole entry): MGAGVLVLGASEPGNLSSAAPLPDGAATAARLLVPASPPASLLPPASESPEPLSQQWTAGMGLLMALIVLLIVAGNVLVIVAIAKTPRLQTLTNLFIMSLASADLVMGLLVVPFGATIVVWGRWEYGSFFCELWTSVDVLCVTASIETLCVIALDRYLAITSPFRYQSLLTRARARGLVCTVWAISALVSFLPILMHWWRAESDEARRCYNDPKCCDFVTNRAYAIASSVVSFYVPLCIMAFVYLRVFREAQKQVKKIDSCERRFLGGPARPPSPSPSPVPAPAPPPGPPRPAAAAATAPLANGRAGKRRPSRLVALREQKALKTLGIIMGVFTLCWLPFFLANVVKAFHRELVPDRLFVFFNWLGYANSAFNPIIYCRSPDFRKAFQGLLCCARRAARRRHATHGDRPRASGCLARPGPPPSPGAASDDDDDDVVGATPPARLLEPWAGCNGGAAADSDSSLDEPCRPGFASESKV
The assay is described as follows: β1-receptor radioligand binding, [125I] iodocyanopindolol, CHO-REX16 cells. To be noted: at 100 nM. As to the method: […] receptor binding was measured in human recombinant beta-1 receptors expressed in CHO-REX16 cells, using [^125I] (-) iodocyanopindolol (2000 Ci/mmol) as the radioligand, as described in Kalaria et al., J. Neurochem. 53: 1772-81 (1998), and Minneman et al., Mol. Pharmacol. 16: 34-46 (1979).

For assay [6], the target named is T3, β1-adrenergic receptor (Rattus norvegicus, UniProt P18090).
T3 construct: from tissue; host or cells: rat cortical membranes
T3 sequence (P18090 whole entry): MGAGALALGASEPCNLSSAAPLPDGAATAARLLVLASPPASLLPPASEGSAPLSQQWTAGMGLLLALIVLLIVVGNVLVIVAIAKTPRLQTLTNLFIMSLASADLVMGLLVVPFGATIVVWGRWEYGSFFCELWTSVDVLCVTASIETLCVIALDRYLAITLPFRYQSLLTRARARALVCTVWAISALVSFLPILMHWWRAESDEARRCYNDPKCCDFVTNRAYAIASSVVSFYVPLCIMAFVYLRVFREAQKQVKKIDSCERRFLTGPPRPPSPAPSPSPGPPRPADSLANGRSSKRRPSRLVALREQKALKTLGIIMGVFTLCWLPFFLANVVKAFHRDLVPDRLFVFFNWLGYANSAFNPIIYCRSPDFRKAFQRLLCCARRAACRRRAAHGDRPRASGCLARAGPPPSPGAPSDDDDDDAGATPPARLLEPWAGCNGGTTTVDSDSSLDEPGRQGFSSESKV
The assay is described as follows: β1-adrenergic radioligand binding assay using rat cortical membranes. As to the method:
as §1

Assay [7] addresses beta-receptors from rat cortical membranes. The assay is described as follows: Non-specific β-receptor radioligand binding, [3H]DHA. To be noted: read-out: Non-selective β-adrenergic IC50. Here is the method: as §1
The target in assay [8] is T4, PDE3 (Homo sapiens, UniProt Q14432).
T4 construct: from tissue; host or cells: human platelets
T4 sequence (Q14432 whole entry): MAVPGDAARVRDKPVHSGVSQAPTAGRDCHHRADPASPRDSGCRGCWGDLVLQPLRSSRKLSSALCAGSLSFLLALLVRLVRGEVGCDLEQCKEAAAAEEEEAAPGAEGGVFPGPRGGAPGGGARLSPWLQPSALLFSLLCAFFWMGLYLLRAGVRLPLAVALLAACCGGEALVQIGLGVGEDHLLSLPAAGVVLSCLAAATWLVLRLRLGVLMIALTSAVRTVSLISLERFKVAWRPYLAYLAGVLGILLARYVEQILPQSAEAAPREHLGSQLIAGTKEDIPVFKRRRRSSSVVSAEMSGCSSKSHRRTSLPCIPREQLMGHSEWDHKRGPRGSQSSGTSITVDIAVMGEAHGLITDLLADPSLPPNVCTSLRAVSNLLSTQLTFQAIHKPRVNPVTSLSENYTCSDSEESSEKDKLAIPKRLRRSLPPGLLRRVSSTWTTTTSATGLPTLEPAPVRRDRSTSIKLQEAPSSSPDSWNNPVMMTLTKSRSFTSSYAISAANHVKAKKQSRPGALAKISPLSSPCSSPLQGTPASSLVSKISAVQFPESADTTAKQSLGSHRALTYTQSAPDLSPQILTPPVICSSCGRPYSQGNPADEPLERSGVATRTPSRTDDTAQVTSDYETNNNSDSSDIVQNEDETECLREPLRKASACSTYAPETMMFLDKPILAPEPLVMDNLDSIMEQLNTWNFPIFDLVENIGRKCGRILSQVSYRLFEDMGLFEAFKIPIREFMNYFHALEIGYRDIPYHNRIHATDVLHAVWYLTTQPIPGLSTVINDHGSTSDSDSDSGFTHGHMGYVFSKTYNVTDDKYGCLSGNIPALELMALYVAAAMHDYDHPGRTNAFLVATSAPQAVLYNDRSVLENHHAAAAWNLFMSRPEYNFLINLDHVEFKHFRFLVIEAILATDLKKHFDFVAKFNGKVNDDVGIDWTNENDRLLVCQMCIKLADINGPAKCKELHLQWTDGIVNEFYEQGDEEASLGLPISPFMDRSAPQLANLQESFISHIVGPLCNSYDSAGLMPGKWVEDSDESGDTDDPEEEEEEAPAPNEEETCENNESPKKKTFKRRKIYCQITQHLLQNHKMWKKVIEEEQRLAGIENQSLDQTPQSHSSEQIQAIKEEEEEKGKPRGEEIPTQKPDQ
The assay is described as follows: In vitro assay for cAMP PDE-3 inhibitory activity. In kind it is biochemical. Here is the method: Human platelet cyclic AMP phosphodiesterase was prepared according to the method of Alvarez et al., Mol. Pharmacol. 29: 554 (1986). The PDE incubation medium contained 10 mM Tris-HCl buffer, pH 7.7, 10 mM MgSO4, and 1 μM […] (0.2 μCi) in a total volume of 1.0 mL. Test compounds were dissolved in DMSO immediately prior to addition to the incubation medium, and the resulting mixture was allowed to stand for 10 minutes prior to the addition of enzyme. Following the addition of PDE, the contents were mixed and incubated for 10 minutes at 30° C. Three assays each were performed for each of five test compound concentrations, the mean of the determinations (n=3) at each concentration was plotted, and IC50 values were determined graphically.
as §1, with “The ability of Compounds 25 and 8c to inhibit PDE3 and β-adrenergic receptor activity was examined both in vitro and in vivo. […] Non-selective” for “Non-selective”

The test system of assay [9] is White New Zealand male rabbits. Description: In vivo hemodynamic effects of compounds administered alone (Protocol 2). Also noted: species or system rabbit. As to the method: as §2, §3, §4
Protocol 2: PDE3 inhibition (effects of compounds when administered alone).

The test system of assay [10] is White New Zealand male rabbits. Description: In vivo β-adrenergic blockade, isoproterenol challenge (Protocol 1). Also noted: species or system rabbit; dose or concentration left out as unconfirmed. The note with it: during isoproterenol challenge, intravenous, FIG. 10.
Assay [11] concerns isolated ventricular myocytes. The assay is described as follows: Sarcomere shortening (contractility) in isolated ventricular myocytes. In kind it is cell-based, rabbit. As to the method: […] Isoproterenol, a potent β-Adrenergic agonist, can produce large increases in cardiac contraction, calcium transient amplitude, and the rates of relaxation (acceleration of relaxation or lusitropic effect). The effects of isoproterenol are then antagonized with different concentrations of a compound of the present invention.
Cardiac myocytes were digested from healthy white New Zealand male rabbits (3-5 lbs), with enzymatic digestion. Briefly, each animal is anesthetized with ketamine (50 mg/kg) and xylazine (6 mg/kg)-IM injection in hind limb. Once the animal was sedated (˜10-15 min), 0.1-0.3 ml of pentobarbital was injected into the ear vein. The heart was exposed by a cut just below the rib-cage and bilateral thoracotomy and removed rapidly ensuring that aorta remains intact. The heart was immediately placed in oxygenated NT with Ca^2+ placed on ice for rinsing the blood out, cleared from vessels and pericardium, cannulated and maintained at 37° C. The heart was retrogradedly perfused and tissue digested with collagenase and protease. Digested myocytes were subsequently stored in 0.1 mM Ca^2+ normal tyrodes for further analyses. Sarcomere length changes upon treatment with test compounds were recorded at 37° C. in the presence of 2 mM calcium and analyzed with an IonOptix system. Sarcomere length data was acquired for each myocyte over an average of 10 beats duration, at pacing rates of 1, 2, and 3 Hz. Basal percent sarcomere shortening and length-frequency relation of each myocyte was evaluated, and serve as a measure of cellular viability.
In vitro studies were performed using rabbit ventricular tissue, to examine the effects of Compounds 25 and 8c on myocyte contractility. New Zealand male rabbits (1.5-2.5 kg) were anesthetized with ketamine (50 mg/kg) and xylazine (6 mg/kg)-IM. The heart was exposed and removed rapidly to ensure that the aorta remained intact. The ventricular tissue was digested enzymatically. Sarcomere shortening was measured in the presence of 2 mM calcium at 37° C. using an IonOptix system; reported values were at 2 Hz pacing frequency.

This note sets out measurements from patent US20080255134A1 (Artesian Therapeutics, Inc., priority 2004, published 2008).

Where two headings read alike, the source gives them in different places.

T1 sequence (P07550 whole entry): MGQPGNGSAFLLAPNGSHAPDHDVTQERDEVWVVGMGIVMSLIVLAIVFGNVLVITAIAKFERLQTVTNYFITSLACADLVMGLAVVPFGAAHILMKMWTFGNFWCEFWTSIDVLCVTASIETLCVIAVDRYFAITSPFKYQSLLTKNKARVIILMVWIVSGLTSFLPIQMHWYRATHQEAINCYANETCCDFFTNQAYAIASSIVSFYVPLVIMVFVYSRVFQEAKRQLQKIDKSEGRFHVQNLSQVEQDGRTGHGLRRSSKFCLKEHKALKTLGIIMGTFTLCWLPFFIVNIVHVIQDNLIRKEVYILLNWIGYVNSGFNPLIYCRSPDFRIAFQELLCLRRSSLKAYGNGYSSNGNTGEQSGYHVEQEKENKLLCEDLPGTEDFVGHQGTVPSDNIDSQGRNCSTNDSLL

In the case of `O=C1CCC(c2ccc(OCC(=O)N3CCC(NC[C@H](O)COc4ccccc4Cl)CC3)c(Cl)c2)=NN1` [Compound 8c, 6-[3-Chloro-4-(2-{4-[3-(2-chloro-phenoxy)-2-hydroxy-propylamino]-piperidin-1-yl}-2-oxo-ethoxy)-phenyl]-4,5-dihydro-2H-pyridazin-3-one], the inhibition at 0.1 µM in [1] (at 100 nM) and in [5] was more than 25% in each case. Moreover, the IC50 in assay [1] (membranes from CHO cells expressing human recombinant β2-adrenergic receptor) is 0.0008 µM; in [4] it was 0.226 µM; in assay [6], 0.005 µM; in [7], 0.014 µM; in [8] (human platelet cyclic AMP phosphodiesterase, bound stated, read-out: PDE3 inhibition IC50), less than 1 µM; in assay [8] (human platelets, read-out: PDE3 IC50) it was 0.15 µM. The “decrease of left ventricular contractility (% of isoproterenol effect)” value in assay [2] (doses that completely diminished isoproterenol-dependent increase in heart rate: atenolol 1 mg/kg, carvedilol 0.3 mg/kg, Compound 8c 1 mg/kg, mean±SEM) was 73±4%. In [2] (during isoproterenol challenge (0.5 μg/kg), FIG. 11), the “β-adrenergic antagonism on heart rate (HR)” value is reported as “dose-dependent β-adrenergic antagonism”. Besides, in assay [3], the “intrinsic sympathomimetic activity (cyclic-AMP production)” value is “did not possess intrinsic sympathomimetic activity”. The “heart rate when administered alone” value in assay [9] (Protocol 2, with and without atropine and bilateral vagotomy (FIG. 16)) is listed as “did not increase heart rate”. Moreover, the mean arterial pressure result in [9] (doses that completely diminished isoproterenol-dependent increase in heart rate, Protocol 2, FIG. 15) is “did not have a significant effect”. In addition, the “left ventricular contractility when administered alone” value in assay [9] (protocol 2, relative to control, FIGS. 2, 12) is listed as “increased or maintained contractility in a dose-dependent manner”. Further, in assay [10], the “β-adrenergic antagonism on left ventricular contractility” value is “potent dose-dependent β-adrenergic antagonism”. Moreover, the “blocking of isoproterenol effect on myocyte contractility” value in [11] (0.1 μM isoproterenol (not shown)) is on record as “blocking the effects of 0.1 mM isoproterenol”. In [11] (2 mM calcium, 37° C., 2 Hz pacing frequency), the “contractility (sarcomere shortening) in isolated ventricular myocytes” value was “increased contractility”.

Broadly, the inhibition is the relative decrease from the control value, in per cent. Broadly, the IC50 is the midpoint of a concentration-inhibition curve.
